Non-standard residues stand in square brackets, D forms with d. No end group written: not given here. Cit = NC(=O)NCCC[C@H](N)C(=O)O

This is an account of results in US9416162B2, “Peptides having reduced toxicity that stimulate cholesterol efflux” (The Regents of the University of California, priority 2013, dated 2016).

This assay relates to apoE−/− mice. As to the kind of experiment: Atherosclerosis in apoE−/− mice on high-fat western diet, whole aorta Oil-Red O staining. The format is in vivo, mouse. As to conditions: IP 30 mg/kg at 48 hour intervals for 6 weeks. How it is done:
Male apoE^−/− mice at 8 weeks of age were fed a high-fat western diet for 14 weeks. Mice were subsequently randomized to either a control group to receive IP injection of vehicle alone or lipid-free peptide (30 mg/kg) at 48 hour intervals for 6 weeks. […] The extent of whole aorta covered with fatty lesions is shown, determined by Oil-Red O staining. Values are means±SD, n=10 mice per group.
CS6253, another synthesis batch of T5237-4, was administered IP at 10 mg/kg for 10 weeks showing again reduction of substantial atherosclerosis in apoE^−/− mice (FIG. 36). Male apoE^−/− mice at 8 weeks of age were fed a high-fat western diet for 14 weeks. Mice were subsequently randomized to either a control group to receive IP injection of vehicle alone or lipid-free CS6253 (10 mg/kg) at 48 hour intervals for 10 weeks while the mice remained on high-fat western diet. The extent of whole aorta covered with fatty lesions is shown, determined by Oil-Red O staining. Values are means±SD, n=10 mice per group.
CS6253 administered SC also reduce substantial atherosclerosis in apoE KO mice. Male apoE−/− mice at 8 weeks of age were fed a high-fat western diet for 14 weeks (FIG. 37). One group was terminated before treatment start as baseline control. Mice were subsequently randomized to one of 3 arms to receive subcutaneous (SC) injection alternate days for 6 weeks; vehicle alone, CS6253 30 mg/kg or CS6253 60 mg/kg. During the first 4 treatment weeks the mice remained on high-fat western diet while during the last two weeks of treatment they were switched to chow diet. The extent of whole aorta covered with fatty lesions is shown, determined by Oil-Red O staining. Values are means±SD, n=10 mice per group.

As to “T5460-1: citrulline form of LeuATI-5261 possessing a single R3→Citrulline substitution (EV[Cit]SKLEEWLAALRELAEELLARLKS)”, the “extent of whole aorta covered with fatty lesions” value was “reduced atherosclerosis”.
